Reference: US6348445B1, “Biologically active peptides with reduced toxicity in animals and a method for preparing same” (priority 1992, dated 2002)
Like-named read-outs stand apart in the source and are kept apart here. Where a SMILES comes first, the peptide text is derived from it. Where no end group is shown, it is not given here. [ ]: non-standard residue; d: D form. The star is where a group is joined. hArg = N=C(N)NCCCC[C@H](N)C(=O)O; Octanoyl = CCCCCCCC(=O)*

Tests used:
[1] = test system: P. gingivalis; conditions: anaerobic, 24-48 hours
[2] = test system: C. albicans; format: cell-based
How it was run: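 Peptides serially diluted 1:2 to final 0.25–256 μg/ml; inoculum 1-5×10^5 CFU/ml from mid-log culture in full-strength Mueller Hinton broth. Incubated 16-20 h at 37° C. MIC taken as lowest peptide concentration giving a clear well.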

[3] = test system: S. mutans; assay: anaerobic anti-microbial susceptibility test (MIC); format: cell-based; parameters: unit not given here; conditions: 24-48 hours
[4] = test system: A. viscosus; assay: anaerobic anti-microbial susceptibility test (MIC); format: cell-based; conditions: 24-48 hours
[5] = test system: E. coli ATCC strain 25922; assay: Minimal Inhibitory Concentration, microtiter broth dilution; format: cell-based
How it was run: (§1)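 Peptides serially diluted 1:2 to final 0.25–256 μg/ml in Mueller Hinton broth, inoculated with 1-5×10^5 CFUs/ml from mid-log culture. Incubated 16-20 hours at 37° C. MIC = lowest peptide concentration giving a clear well.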

[6] = test system: P. aeruginosa strain ATCC 27853; format: cell-based
How it was run: as §1

[7] = test system: S.aureus strain ATCC 25923; assay: Minimal Inhibitory Concentration, microtiter broth dilution; format: cell-based; conditions: Mueller Hinton broth, 16-20 hours at 37° C.
Description: Table I, which follows, indicates the Minimal Inhibitory Concentration (MIC) in […] of various peptides against S.aureus strain ATCC 25923(S), P. aeruginosa strain ATCC 27853(P), E. coli ATCC strain 25922(E), and C. 4albicans (CA). […] The peptides are unsubstituted at the N-terminal; substituted with an acetyl group at the N-terminal, as indicated by Ac-; substituted with an octanoyl group at the N-terminal, as indicated by Oct-; substituted with spinogosine, as indicated by Sph-; substituted with a succinyl group, as indicated by Suc-; substituted with a hexanoyl group, as indicated by Hex-; substituted with a heptanoyl group, as indicated by Hep-; substituted with a valeryl group, as indicated by Val-; substituted with a myristryl group, as indicated by Myr-; or substituted with an ibuprofyl group, as indicated by Ibu-;
The procedure for the anti-bacterial assay is based upon the guidelines of the National Committee for Clinical Laboratory Standards, Document M7-T2, Volume 8, No. 8, 1988, which document is entirely incorporated herein by reference.
Stock solutions of peptides, with and without the appropriate substitutions, were prepared at a concentration of 512 μg/ml in sterile deionized distilled water and stored at −70° C.
The stock peptide solution was diluted in serial dilutions (1:2) down the wells of a microtiter plate so that the final concentrations of peptides in the wells were 0.25, 0.50, 1, 2, 4, 8, 16, 32, 64, 128 and 256 μg/ml. 1-5×10^5 CFUs/ml of either S. aureus ATCC 25923, E. coli ATCC 25922, P. aeruginosa ATCC 27853, or C. albicans, were added to the wells in full strength Mueller Hinton broth (BBL 11443) from a mid-log culture. The inoculum was standardized spectrophotometrically at 600 nm and was verified by colony counts. The plates were incubated for 16-20 hours at 37° C., and the minimal inhibitory concentration (MIC) for each peptide was determined. Minimal inhibitory concentration is defined as the lowest concentration of peptide which produces a clear well in the microtiter plate. The minimal inhibitory concentration of each of the peptides with and/or without the appropriate substitutions is given in Table I below.

Row | Compound | MIC P. gingivalis (strain) 9-14K-1 [1] | MIC P. gingivalis (strain) 381 [1] | MIC P. gingivalis (strain) 450 [1] | MIC P. gingivalis (strain) A7A1-28 [1] | MIC P. gingivalis (strain) FAY-19M-1 [1] | Minimal Inhibitory Concentration CA [2] | MIC S. mutans [3] | MIC A. viscos [4] | Minimal Inhibitory Concentration E ([5]; ATCC strain 25922) | Minimal Inhibitory Concentration P ([6]; ATCC 27853) | Minimal Inhibitory Concentration S [7] | Minimal Inhibitory Concentration E ([5]; E. coli ATCC strain 25922, Table I) | Minimal Inhibitory Concentration P ([6]; P. aeruginosa strain ATCC 27853, Table I)
1 | CCCCCCCC(=O)N[C@@H](CCCCNC(=N)N)C(=O)N[C@H](C(=O)N[C@@H](C)C(=O)NCC(=O)N[C@@H](CCCCNC(=N)N)C(=O)N[C@H](C(=O)N[C@@H](C)C(=O)N[C@@H](CCCCNC(=N)N)C(=O)N[C@H](C(=O)N[C@@H](C)C(=O)NCC(=O)N[C@@H](CCCCNC(=N)N)C(=O)N[C@H](C(=O)N[C@@H](C)C(=O)N[C@@H](CCCCNC(=N)N)C(=O)N[C@H](C(=O)N[C@@H](C)C(=O)NCC(=O)N[C@@H](CCCCNC(=N)N)C(=O)N[C@H](C(=O)N[C@@H](C)C(N)=O)[C@@H](C)CC)[C@@H](C)CC)[C@@H](C)CC)[C@@H](C)CC)[C@@H](C)CC)[C@@H](C)CC [Oct-(SEQ ID NO: 66)-NH2] (Octanoyl-[hArg]IAG[hArg]IA[hArg]IAG[hArg]IA[hArg]IAG[hArg]IA-NH2) | 2 μl/ml | 4 μl/ml | 2 μl/ml | 8 μl/ml | 2 μl/ml | 256 µg/mL | 32 | 16 μl/ml | 8 µg/mL | 16 µg/mL | – | – | –
2 | (Lys Ile Ala Lys Lys Ile Ala)3 (KIAKKIAKIAKKIAKIAKKIA-NH2) [(SEQ ID NO. 86)-NH2, unsubstituted at the N-terminal, C-terminal amide] | 8 μl/ml | 8 μl/ml | 4 μl/ml | 2 μl/ml | 8,128 μl/ml | – | 4 | 16 μl/ml | – | – | – | – | –
3 | CCCCCCCC(=O)N[C@@H](CCCCN)C(=O)N[C@@H](Cc1c[nH]c2ccccc12)C(=O)N[C@@H](CCCCN)C(=O)N[C@@H](CC(C)C)C(=O)N[C@@H](Cc1ccccc1)C(=O)N[C@@H](CCCCN)C(=O)N[C@@H](CCCCN)C(=O)N[C@H](C(=O)N[C@@H](CCC(=O)O)C(=O)N[C@@H](CCCCN)C(=O)N[C@H](C(N)=O)C(C)C)[C@@H](C)CC [Oct-(SEQ ID NO: 136)-NH2] (Octanoyl-KWKLFKKIEKV-NH2) | – | – | – | – | – | 256 µg/mL | – | – | – | 64 µg/mL | 256 µg/mL | 256 µg/mL | –
4 | H-KIAGKIAKIAGKIAKIAGKIA-NH2 [(SEQ ID NO: 27)-NH2, (Lys Ile Ala Gly Lys Ile Ala)3] | 8,128 μl/ml | 128 μl/ml | 4 μl/ml | 16 μl/ml | 64 μl/ml | – | 16 | 16 μl/ml | 8 µg/mL | – | – | – | 64,128 μg/ml
5 | CCCCCCCC(=O)N[C@@H](CCCCN)C(=O)N[C@H](C(=O)N[C@@H](C)C(=O)NCC(=O)N[C@@H](CCCCN)C(=O)N[C@H](C(=O)N[C@@H](C)C(=O)N[C@@H](CCCCN)C(=O)N[C@H](C(=O)N[C@@H](C)C(=O)NCC(=O)N[C@@H](CCCCN)C(=O)N[C@H](C(=O)N[C@@H](C)C(=O)N[C@@H](CCCCN)C(=O)N[C@H](C(=O)N[C@@H](C)C(=O)NCC(=O)N[C@@H](CCCCN)C(=O)N[C@H](C(=O)N[C@@H](C)C(=O)O)[C@@H](C)CC)[C@@H](C)CC)[C@@H](C)CC)[C@@H](C)CC)[C@@H](C)CC)[C@@H](C)CC [Oct-(SEQ ID NO: 27)-OH] (Octanoyl-KIAGKIAKIAGKIAKIAGKIA-OH) | 2 μl/ml | 2 μl/ml | 1 μl/ml | 1 μl/ml | 2 μl/ml | 32 µg/mL | 16 | 32 μl/ml | 4 µg/mL | 8 µg/mL | – | – | –
6 | CC[C@H](C)[C@H](NC(=O)[C@H](CCCCNC(=N)N)NC(=O)CNC(=O)[C@H](C)NC(=O)[C@@H](NC(=O)[C@H](CCCCNC(=N)N)NC(=O)[C@H](C)NC(=O)[C@@H](NC(=O)[C@H](CCCCNC(=N)N)NC(=O)CNC(=O)[C@H](C)NC(=O)[C@@H](NC(=O)[C@H](CCCCNC(=N)N)NC(=O)[C@H](C)NC(=O)[C@@H](NC(=O)[C@H](CCCCNC(=N)N)NC(=O)CNC(=O)[C@H](C)NC(=O)[C@@H](NC(=O)[C@@H](N)CCCCNC(=N)N)[C@@H](C)CC)[C@@H](C)CC)[C@@H](C)CC)[C@@H](C)CC)[C@@H](C)CC)C(=O)N[C@@H](C)C(N)=O [(SEQ ID NO: 66)-NH2, (Har Ile Ala Gly Har Ile Ala)3] (H-[hArg]IAG[hArg]IA[hArg]IAG[hArg]IA[hArg]IAG[hArg]IA-NH2) | 2 μl/ml | 16 μl/ml | 4 μl/ml | 4 μl/ml | 8 μl/ml | 64 µg/mL | 8 | 8 μl/ml | 32 µg/mL | 32 µg/mL | – | – | –
7 | CCCCCCCC(=O)N[C@@H](CC(C)C)C(=O)N[C@@H](CCCCN)C(=O)N[C@@H](CCCCN)C(=O)N[C@@H](CC(C)C)C(=O)N[C@@H](CC(C)C)C(=O)N[C@@H](CCC(=O)O)C(=O)N[C@@H](CCCCN)C(=O)N[C@@H](CC(C)C)C(=O)N[C@@H](CCCCN)C(=O)N[C@@H](CCCCN)C(=O)N[C@@H](CC(C)C)C(N)=O [Oct-(SEQ ID NO: 130)-NH2] (Octanoyl-LKKLLEKLKKL-NH2) | – | – | – | – | – | 8 µg/mL | – | – | 4 µg/mL | 4 µg/mL | – | – | –
8 | CCCCCCCC(=O)N[C@H](CC(C)C)C(=O)N[C@H](CCCCN)C(=O)N[C@H](CCCCN)C(=O)N[C@H](CC(C)C)C(=O)N[C@H](CC(C)C)C(=O)N[C@H](CCCCN)C(=O)N[C@H](CCCCN)C(=O)N[C@H](CC(C)C)C(=O)N[C@H](CCCCN)C(=O)N[C@H](CCCCN)C(=O)N[C@H](CC(C)C)C(N)=O [Oct-D-(SEQ ID NO: 110)-NH2] (Octanoyl-[dL][dK][dK][dL][dL][dK][dK][dL][dK][dK][dL]-NH2) | – | – | – | – | – | 32 µg/mL | – | – | 16 µg/mL | 4 µg/mL | – | – | –
9 | CCCCCCCC(=O)N[C@@H](CCCCN)C(=O)N[C@@H](CCCCN)C(=O)N[C@@H](CC(C)C)C(=O)N[C@@H](CC(C)C)C(=O)N[C@@H](CCCCN)C(=O)N[C@@H](CCCCN)C(=O)N[C@@H](CC(C)C)C(=O)N[C@@H](CCCCN)C(=O)N[C@@H](CCCCN)C(=O)N[C@@H](CC(C)C)C(=O)N[C@@H](CC(C)C)C(=O)N[C@@H](CCCCN)C(=O)N[C@@H](CCCCN)C(=O)N[C@@H](CC(C)C)C(N)=O [Oct-(SEQ ID NO: 147)-NH2] (Octanoyl-KKLLKKLKKLLKKL-NH2) | – | – | – | – | – | 128 µg/mL | – | – | 32 µg/mL | 32 µg/mL | – | – | –
10 | CCCCCCCC(=O)N[C@@H](CC(C)C)C(=O)N[C@@H](CC(C)C)C(=O)N[C@@H](CCCCN)C(=O)N[C@@H](CCCCN)C(=O)N[C@@H](CC(C)C)C(=O)N[C@@H](CCCCN)C(=O)N[C@@H](CCCCN)C(=O)N[C@@H](CC(C)C)C(=O)N[C@@H](CC(C)C)C(=O)N[C@@H](CCCCN)C(=O)N[C@@H](CCCCN)C(=O)N[C@@H](CC(C)C)C(N)=O [Oct-(SEQ ID NO: 113)-NH2] (Octanoyl-LLKKLKKLLKKL-NH2) | – | – | – | – | – | 128 µg/mL | – | – | 8 µg/mL | 8 µg/mL | – | – | –
